Assay results taken from patent publication US20060004019A1, “Steroid sparing agents and methods of using same” (priority 2004, published 2006).

Legend:
[1] = tested on: rat cardiac allografts; assay: Rat cardiac allograft study, Allograft Study 5, dose response (Table 23); assay type: in vivo
[2] = tested on: rat cardiac allografts; assay: Rat cardiac allograft study, Allograft Study 4 (Table 22); details: s.c., GG5/3 3 mg/kg, compounds 30 mg/kg;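 further: heterotopic abdominal heart transplants from Lewis × Brown Norway F1 donors into male Lewis rats, graft beating checked daily by flank palpation, rejection defined as complete stop of heartbeat, transplant day 0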
Procedure: Hearts from Lewis X Brown Norway F1 hybrids were transplanted to the abdominal great vessels of Lewis recipients using standard microvascular techniques. Both rat strains were male inbred rats, weighing 200-300 g. Food and water was available at all times except during surgical and dosing procedures. The day of transplantation was noted as day 0. Twelve hours following the last dose approximately 1 ml of blood was collected into lithium/heparin anti-coagulant tubes. If any graft was rejected prior to the last day of dosing, blood samples were taken 12 hours after dosing on the day that graft rejection was noted. All blood samples were centrifuged at 3000 rpm for 10 minutes and the plasma was harvested, frozen on dry ice and stored frozen at −20 C prior to analysis. Allograft survival in the rats was evaluated by daily palpation of the transplanted heart through the recipient's flank. Rejection was taken as the day of complete cessation of the graft's heart beat. Upon determination of rejection, the abdomen of the recipient was incised and retracted to confirm cessation of the heart beat in the transplanted heart. If cessation of the heart beat was not confirmed the abdomen was surgically closed, and the grafted heart was evaluated daily.
Cardiac allografts were established. Dosing of compounds began on day −2, 2 days prior to transplantation and continued through day +10. […] The vehicle control, 0.9% saline, pH adjusted to a value of 5, to match the dosing solution containing the N-[N-(3-pyridinesulfonyl)-L-3,3-dimethyl-4-thiaprolyl]-0-[1-methylpiperazin-4-ylcarbonyl]-L-tyrosine isopropyl ester, was administered via the same route, i.e. every 12 hours, day −2 through day +10. The antibody, GG5/3 in 0.9% saline, was administered at 3 mg/kg, s.c., on day 0, +3, +7 and +10. All GG5/3 animals received twice daily s.c. injections of 0.9% saline, every 12 hours, from day −2 through day +10. The vehicle control, 0.9% saline, was administered daily, s.c., day 0 through day +10. All dosing solutions were formulated daily at a constant dose volume of 5 ml/kg. The site of injection was rotated at each injection through four possible sites: right and left fore flank, right and left rear flank. A total of 21 allografts, amongst 5 groups, were evaluated in the study. […] Two animals within the 0.9% saline group received saline adjusted to a pH a value of 5. (The pH value of the N-[N-(3-pyridinesulfonyl)-L-3,3-dimethyl-4-thiaprolyl]-0-[1-methylpiperazin-4-ylcarbonyl]-L-tyrosine isopropyl ester dosing solution.) The remaining two animals received saline of pH 7. Group 2 consisted of 6 animals treated with the monoclonal antibody, GG5/3. […] Twelve hours following the last dose approximately 1 ml of blood was collected into lithium/heparin anti-coagulant tubes. If any graft was rejected prior to the last day of dosing, blood samples were taken 12 hours after dosing on the day that graft rejection was noted. All samples were centrifuged at 3000 rpm for 10 minutes and the plasma was harvested, frozen on dry ice and stored frozen at −20 C prior to dispatch for analysis. Allograft survival in the rats was evaluated by daily palpation of the transplanted heart through the recipient's flank. Rejection was taken as the day of complete cessation of graft's heart beat. Upon determination of rejection, the abdomen of the recipient was incised to confirm cessation of the heart beat in the transplanted heart. If cessation of the heart beat was not confirmed the abdomen was surgically closed, and the graft was evaluated daily.

CC(C)OC(=O)[C@H](Cc1ccc(OC(=O)N2CCN(C)CC2)cc1)NC(=O)[C@H]1N([S+]([O-])c2cccnc2)CSC1(C)C (some centres unmarked) [listing 1 of 2 here]
graft survival, data normalized to group size ([1]; day 1, 3 mg/kg s.c.): 100% | graft survival, data normalized to group size ([1]; day 2, 3 mg/kg s.c.): 100% | graft survival, data normalized to group size ([1]; day 3, 3 mg/kg s.c.): 100% | graft survival, data normalized to group size ([1]; day 4, 3 mg/kg s.c.): 100% | graft survival, data normalized to group size ([1]; day 5, 3 mg/kg s.c.): 100% | graft survival, data normalized to group size ([1]; day 6, 3 mg/kg s.c.): 100% | graft survival, data normalized to group size ([1]; day 7, 3 mg/kg s.c.): 83% | graft survival, data normalized to group size ([1]; day 8, 3 mg/kg s.c.): 83% | graft survival, data normalized to group size ([1]; day 9, 3 mg/kg s.c.): 50% | graft survival, data normalized to group size ([1]; day 10, 3 mg/kg s.c.): 0% | graft survival, data normalized to group size ([1]; day 11, 3 mg/kg s.c.): 0% | graft survival, data normalized to group size ([1]; day 12, 3 mg/kg s.c.): 0% | graft survival, data normalized to group size ([1]; day 13, 3 mg/kg s.c.): 0% | graft survival, data normalized to group size ([1]; day 14, 3 mg/kg s.c.): 0%

CC(C)OC(=O)[C@H](Cc1ccc(OC(=O)N2CCN(C)CC2)cc1)NC(=O)[C@H]1N(S(=O)(=O)c2cccnc2)CSC1(C)C [listing 1 of 5 here]
graft survival, data normalized to group size ([1]; day 1, 10 mg/kg s.c.): 100% | graft survival, data normalized to group size ([1]; day 2, 10 mg/kg s.c.): 100% | graft survival, data normalized to group size ([1]; day 3, 10 mg/kg s.c.): 100% | graft survival, data normalized to group size ([1]; day 4, 10 mg/kg s.c.): 100% | graft survival, data normalized to group size ([1]; day 5, 10 mg/kg s.c.): 100% | graft survival, data normalized to group size ([1]; day 6, 10 mg/kg s.c.): 100% | graft survival, data normalized to group size ([1]; day 7, 10 mg/kg s.c.): 100% | graft survival, data normalized to group size ([1]; day 8, 10 mg/kg s.c.): 100% | graft survival, data normalized to group size ([1]; day 9, 10 mg/kg s.c.): 80% | graft survival, data normalized to group size ([1]; day 10, 10 mg/kg s.c.): 80% | graft survival, data normalized to group size ([1]; day 11, 10 mg/kg s.c.): 80% | graft survival, data normalized to group size ([1]; day 12, 10 mg/kg s.c.): 80% | graft survival, data normalized to group size ([1]; day 13, 10 mg/kg s.c.): 40% | graft survival, data normalized to group size ([1]; day 14, 10 mg/kg s.c.): 40%

CC(C)OC(=O)[C@H](Cc1ccc(OC(=O)N2CCN(C)CC2)cc1)NC(=O)[C@H]1N(S(=O)(=O)c2cccnc2)CSC1(C)C [listing 2 of 5 here]
graft survival, data normalized to group size ([1]; day 1, 30 mg/kg s.c.): 100% | graft survival, data normalized to group size ([1]; day 2, 30 mg/kg s.c.): 100% | graft survival, data normalized to group size ([1]; day 3, 30 mg/kg s.c.): 100% | graft survival, data normalized to group size ([1]; day 4, 30 mg/kg s.c.): 100% | graft survival, data normalized to group size ([1]; day 5, 30 mg/kg s.c.): 100% | graft survival, data normalized to group size ([1]; day 6, 30 mg/kg s.c.): 100% | graft survival, data normalized to group size ([1]; day 7, 30 mg/kg s.c.): 100% | graft survival, data normalized to group size ([1]; day 8, 30 mg/kg s.c.): 100% | graft survival, data normalized to group size ([1]; day 9, 30 mg/kg s.c.): 100% | graft survival, data normalized to group size ([1]; day 10, 30 mg/kg s.c.): 100% | graft survival, data normalized to group size ([1]; day 11, 30 mg/kg s.c.): 100% | graft survival, data normalized to group size ([1]; day 12, 30 mg/kg s.c.): 100% | graft survival, data normalized to group size ([1]; day 13, 30 mg/kg s.c.): 100% | graft survival, data normalized to group size ([1]; day 14, 30 mg/kg s.c.): 100%

CC(C)OC(=O)[C@H](Cc1ccc(OC(=O)N2CCN(C)CC2)cc1)NC(=O)[C@H]1N([S+]([O-])c2cccnc2)CSC1(C)C (some centres unmarked) [listing 2 of 2 here]
number of surviving grafts ([1]; day 0, 3 mg/kg s.c.): 6 | number of surviving grafts ([1]; day 1, 3 mg/kg s.c.): 6 | number of surviving grafts ([1]; day 2, 3 mg/kg s.c.): 6 | number of surviving grafts ([1]; day 3, 3 mg/kg s.c.): 6 | number of surviving grafts ([1]; day 4, 3 mg/kg s.c.): 6 | number of surviving grafts ([1]; day 5, 3 mg/kg s.c.): 6 | number of surviving grafts ([1]; day 6, 3 mg/kg s.c.): 6 | number of surviving grafts ([1]; day 7, 3 mg/kg s.c.): 5 | number of surviving grafts ([1]; day 8, 3 mg/kg s.c.): 5 | number of surviving grafts ([1]; day 9, 3 mg/kg s.c.): 3 | number of surviving grafts ([1]; day 10, 3 mg/kg s.c.): 0 | number of surviving grafts ([1]; day 11, 3 mg/kg s.c.): 0 | number of surviving grafts ([1]; day 12, 3 mg/kg s.c.): 0 | number of surviving grafts ([1]; day 13, 3 mg/kg s.c.): 0 | number of surviving grafts ([1]; day 14, 3 mg/kg s.c.): 0 | graft survival, data normalized to group size ([1]; day 15, 3 mg/kg s.c.): 0% | number of surviving grafts ([1]; day 15, 3 mg/kg s.c.): 0 | graft survival, data normalized to group size ([1]; day 16, 3 mg/kg s.c.): 16% | number of surviving grafts ([1]; day 16, 3 mg/kg s.c.): 0 | graft survival, data normalized to group size ([1]; day 17, 3 mg/kg s.c.): 17% | number of surviving grafts ([1]; day 17, 3 mg/kg s.c.): 0 | graft survival, data normalized to group size ([1]; day 18, 3 mg/kg s.c.): 18% | number of surviving grafts ([1]; day 18, 3 mg/kg s.c.): 0 | graft survival, data normalized to group size ([1]; day 19, 3 mg/kg s.c.): 19% | number of surviving grafts ([1]; day 19, 3 mg/kg s.c.): 0 | graft survival, data normalized to group size ([1]; day 20, 3 mg/kg s.c.): 20% | number of surviving grafts ([1]; day 20, 3 mg/kg s.c.): 0 | graft survival, data normalized to group size ([1]; day 21, 3 mg/kg s.c.): 21% | number of surviving grafts ([1]; day 21, 3 mg/kg s.c.): 0

CC(C)OC(=O)[C@H](Cc1ccc(OC(=O)N2CCN(C)CC2)cc1)NC(=O)[C@H]1N(S(=O)(=O)c2cccnc2)CSC1(C)C [listing 3 of 5 here]
number of surviving grafts ([2]; day 0): 6 | number of surviving grafts ([2]; day 1): 6 | number of surviving grafts ([2]; day 2): 6 | number of surviving grafts ([2]; day 3): 6 | number of surviving grafts ([2]; day 4): 6 | number of surviving grafts ([2]; day 5): 6 | number of surviving grafts ([2]; day 6): 6 | number of surviving grafts ([2]; day 7): 6 | number of surviving grafts ([2]; day 8): 6 | number of surviving grafts ([2]; day 9): 5 | number of surviving grafts ([2]; day 10): 4 | number of surviving grafts ([2]; day 11): 4 | number of surviving grafts ([2]; day 12): 4 | number of surviving grafts ([2]; day 13): 4 | number of surviving grafts ([2]; day 14): 4 | number of surviving grafts ([2]; day 15): 4 | number of surviving grafts ([2]; day 16): 3 | number of surviving grafts ([2]; day 17): 3 | number of surviving grafts ([2]; day 18): 3 | number of surviving grafts ([2]; day 19): 3

CC(C)OC(=O)[C@H](Cc1ccc(OC(=O)N2CCN(C)CC2)cc1)NC(=O)[C@H]1N(S(=O)(=O)c2cccnc2)CSC1(C)C [listing 4 of 5 here]
number of surviving grafts ([1]; day 0, 10 mg/kg s.c.): 5 | number of surviving grafts ([1]; day 1, 10 mg/kg s.c.): 5 | number of surviving grafts ([1]; day 2, 10 mg/kg s.c.): 5 | number of surviving grafts ([1]; day 3, 10 mg/kg s.c.): 5 | number of surviving grafts ([1]; day 4, 10 mg/kg s.c.): 5 | number of surviving grafts ([1]; day 5, 10 mg/kg s.c.): 5 | number of surviving grafts ([1]; day 6, 10 mg/kg s.c.): 5 | number of surviving grafts ([1]; day 7, 10 mg/kg s.c.): 5 | number of surviving grafts ([1]; day 8, 10 mg/kg s.c.): 5 | number of surviving grafts ([1]; day 9, 10 mg/kg s.c.): 4 | number of surviving grafts ([1]; day 10, 10 mg/kg s.c.): 4 | number of surviving grafts ([1]; day 11, 10 mg/kg s.c.): 4 | number of surviving grafts ([1]; day 12, 10 mg/kg s.c.): 4 | number of surviving grafts ([1]; day 13, 10 mg/kg s.c.): 2 | number of surviving grafts ([1]; day 14, 10 mg/kg s.c.): 2 | graft survival, data normalized to group size ([1]; day 15, 10 mg/kg s.c.): 40% | number of surviving grafts ([1]; day 15, 10 mg/kg s.c.): 2 | graft survival, data normalized to group size ([1]; day 16, 10 mg/kg s.c.): 20% | number of surviving grafts ([1]; day 16, 10 mg/kg s.c.): 1 | graft survival, data normalized to group size ([1]; day 17, 10 mg/kg s.c.): 20% | number of surviving grafts ([1]; day 17, 10 mg/kg s.c.): 1 | graft survival, data normalized to group size ([1]; day 18, 10 mg/kg s.c.): 20% | number of surviving grafts ([1]; day 18, 10 mg/kg s.c.): 1 | graft survival, data normalized to group size ([1]; day 19, 10 mg/kg s.c.): 20% | number of surviving grafts ([1]; day 19, 10 mg/kg s.c.): 1 | graft survival, data normalized to group size ([1]; day 20, 10 mg/kg s.c.): 20% | number of surviving grafts ([1]; day 20, 10 mg/kg s.c.): 1 | graft survival, data normalized to group size ([1]; day 21, 10 mg/kg s.c.): 20% | number of surviving grafts ([1]; day 21, 10 mg/kg s.c.): 1

CC(C)OC(=O)[C@H](Cc1ccc(OC(=O)N2CCN(C)CC2)cc1)NC(=O)[C@H]1N(S(=O)(=O)c2cccnc2)CSC1(C)C [listing 5 of 5 here]
number of surviving grafts ([1]; day 0, 30 mg/kg s.c.): 6 | number of surviving grafts ([1]; day 1, 30 mg/kg s.c.): 6 | number of surviving grafts ([1]; day 2, 30 mg/kg s.c.): 6 | number of surviving grafts ([1]; day 3, 30 mg/kg s.c.): 6 | number of surviving grafts ([1]; day 4, 30 mg/kg s.c.): 6 | number of surviving grafts ([1]; day 5, 30 mg/kg s.c.): 6 | number of surviving grafts ([1]; day 6, 30 mg/kg s.c.): 6 | number of surviving grafts ([1]; day 7, 30 mg/kg s.c.): 6 | number of surviving grafts ([1]; day 8, 30 mg/kg s.c.): 6 | number of surviving grafts ([1]; day 9, 30 mg/kg s.c.): 6 | number of surviving grafts ([1]; day 10, 30 mg/kg s.c.): 6 | number of surviving grafts ([1]; day 11, 30 mg/kg s.c.): 6 | number of surviving grafts ([1]; day 12, 30 mg/kg s.c.): 6 | number of surviving grafts ([1]; day 13, 30 mg/kg s.c.): 6 | number of surviving grafts ([1]; day 14, 30 mg/kg s.c.): 6 | graft survival, data normalized to group size ([1]; day 15, 30 mg/kg s.c.): 100% | number of surviving grafts ([1]; day 15, 30 mg/kg s.c.): 6 | graft survival, data normalized to group size ([1]; day 16, 30 mg/kg s.c.): 100% | number of surviving grafts ([1]; day 16, 30 mg/kg s.c.): 6 | graft survival, data normalized to group size ([1]; day 17, 30 mg/kg s.c.): 100% | number of surviving grafts ([1]; day 17, 30 mg/kg s.c.): 6 | graft survival, data normalized to group size ([1]; day 18, 30 mg/kg s.c.): 100% | number of surviving grafts ([1]; day 18, 30 mg/kg s.c.): 6 | graft survival, data normalized to group size ([1]; day 19, 30 mg/kg s.c.): 100% | number of surviving grafts ([1]; day 19, 30 mg/kg s.c.): 6 | graft survival, data normalized to group size ([1]; day 20, 30 mg/kg s.c.): 100% | number of surviving grafts ([1]; day 20, 30 mg/kg s.c.): 6 | graft survival, data normalized to group size ([1]; day 21, 30 mg/kg s.c.): 83% | number of surviving grafts ([1]; day 21, 30 mg/kg s.c.): 5
